Test results: patent US6858645B2, “Tartrate salts of (R) -3-N,N- dicyclobutylamino-8-fluoro-3,4-dihydro-2H-1- benzopyran-5-carboxamide” (AstraZeneca AB, priority 1997, dated 2005)

Columns and labels:
[1] = Moisture sorption analysis (absorption and desorption), VTI microbalance, as a measure of physical stability; type: physicochemical; conditions: 25° C.
Description: Determination of Stability […] The moisture sorption analysis, absorption and desorption, respective was performed using a VTI microbalance, Model […] (VTI Corporation, USA) linked to an IBM PC. The relative humidity (RH) within the balance was monitored using a dew point analyser. […] The desorption profile was also obtained.

[2] = background statement on the salt disclosed in WO 95/11891; cited from earlier work
[3] = thermogravimetric measurement
[4] = water firmly bound in crystal lattice

In the case of `Cl.NC(=O)c1ccc(F)c2c1C[C@@H](N(C1CCC1)C1CCC1)CO2` [HCl salt, (R)-3-N,N-dicyclobutylamino-8-fluoro-3,4-dihydro-2H-1-benzopyran-5-carboxamide, reference compound], the “behaviour at high relative humidity” value ([1]; 85% relative humidity) is listed as “exhibits deliquescence”, the moisture taken up ([1]; 85% relative humidity) is listed as “approximately 20 % w/w” and the “hygroscopicity / physical stability during manufacturing and storage” value [2] is listed as “hygroscopic and thus physically unstable”.
With `NC(=O)c1ccc(F)c2c1C[C@@H](N(C1CCC1)C1CCC1)CO2.O.O=C(O)C(O)C(O)C(=O)O` [Example 2, (R)-3-N,N-dicyclobutylamino-8-fluoro-3,4-dihydro-2H-1-benzopyran-5-carboxamide Hydrogen (2R,3R)-Tartrate Monohydrate] the “initial weight loss (thermogravimetric)” value [3] was 4.104 % w/w, the “RH at which significant uptake of moisture was recorded” value ([1]; RH steps of 5%) was ≥ 60% and the moisture absorbed ([1]; RH of 90%) was 2.5 % (w/w). The desorption profile ([1]; desorption after exposure up to 90% RH) was “the moisture uptake is reversible” and the “heating temperature up to which crystal water is not released” value [4] was “up to 70 °C”.
